The record followed here is patent US8450373B2, “Alpha ketoamide compounds as cysteine protease inhibitors” (Virobay, Inc., priority 2005, dated 2013).

`CC[C@H](NC(=O)[C@H](CCS(C)(=O)=O)N[C@@H](c1ccc(F)cc1)C(F)(F)F)C(=O)C(=O)NC1CC1` [Table I Cpd. 78, N-cyclopropyl-3S-{4-methanesulfonyl-2S-[2,2,2-trifluoro-1S-(4-fluoro-phenyl)-ethylamino]-butyrylamino}-2-oxo-pentanamide]: the melting point (commonly the temperature of the solid-liquid transition) lay in the range of 152.5 to 153.5 °C.
